# Reference: PubChem BioAssay (NCI)
#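 All cell lines were grown in 96-well plates and treated with compound for 48 hours. GI50 marks 50% less growth. The concentration for full growth arrest is given as TGI.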
# Test system: HOP-18 NSCLC
# Test: inhibition of tumour cell growth, NCI panel, 48 h
SMILES,TGI [µM],GI50 [µM]
CCOP(=O)(Cc1ccc(CP(=O)(OCC)OCC)n1C)OCC,> 100,
O=C(Nc1nc2ncn(CCI)c2c(=O)[nH]1)c1ccccc1,> 100,
CC(O)C(N=Cc1ccccc1[O-])C(=O)[O-].CC(O)C(N=Cc1ccccc1[O-])C(=O)[O-].[Co+2] (stereo not drawn),> 100,70.8

# Test system: HOP-62 NSCLC
# Test: inhibition of tumour cell growth, NCI panel, 48 h
row,SMILES,TGI [µM]
1,O=C(/C=C/c1ccc(O)cc1)OC[C@@H](O)COC1OC(CO)C(O)C(O)C1O (stereo partly drawn),> 100
2,CCN(CC)CCOc1ccc(/C=C(\C#N)c2ccc(OCCN(CC)CC)cc2)cc1,22.6
3,Cc1ccc(NC(=O)c2c(C)nc(=O)n3c2N(/N=C/c2ccc(Cl)cc2)CC3)cc1,33.1
4,CC1=Nc2ccccc2C1C(Cc1ccccc1N)c1c(C)[nH]c2ccccc12 (stereo not drawn),27.9
5,CCOP(=O)(Cc1ccc(CP(=O)(OCC)OCC)n1C)OCC,> 100
6,O=C(Nc1nc2ncn(CCI)c2c(=O)[nH]1)c1ccccc1,> 81.1

# Test system: HOP-92 NSCLC
# Test: inhibition of tumour cell growth, NCI panel, 48 h
SMILES,TGI [µM],GI50 [µM]
O=C(/C=C/c1ccc(O)cc1)OC[C@@H](O)COC1OC(CO)C(O)C(O)C1O (stereo partly drawn),> 100,
CCN(CC)CCOc1ccc(/C=C(\C#N)c2ccc(OCCN(CC)CC)cc2)cc1,55.4,
Cc1ccc(NC(=O)c2c(C)nc(=O)n3c2N(/N=C/c2ccc(Cl)cc2)CC3)cc1,36.6,
CC1=Nc2ccccc2C1C(Cc1ccccc1N)c1c(C)[nH]c2ccccc12 (stereo not drawn),26.1,
CCOP(=O)(Cc1ccc(CP(=O)(OCC)OCC)n1C)OCC,> 100,
O=C(Nc1nc2ncn(CCI)c2c(=O)[nH]1)c1ccccc1,81,
CC(O)C(N=Cc1ccccc1[O-])C(=O)[O-].CC(O)C(N=Cc1ccccc1[O-])C(=O)[O-].[Co+2] (stereo not drawn),> 100,47.7

# Test system: HT29 colon
# Test: inhibition of tumour cell growth, NCI panel, 48 h
row,SMILES,TGI [µM]
1,O=C(/C=C/c1ccc(O)cc1)OC[C@@H](O)COC1OC(CO)C(O)C(O)C1O (stereo partly drawn),> 100
2,CCN(CC)CCOc1ccc(/C=C(\C#N)c2ccc(OCCN(CC)CC)cc2)cc1,8.58
3,CC1=Nc2ccccc2C1C(Cc1ccccc1N)c1c(C)[nH]c2ccccc12 (stereo not drawn),33.1
4,CCOP(=O)(Cc1ccc(CP(=O)(OCC)OCC)n1C)OCC,> 100
5,O=C(Nc1nc2ncn(CCI)c2c(=O)[nH]1)c1ccccc1,> 100

# Test system: IGROV1 ovarian
# Test: inhibition of tumour cell growth, NCI panel, 48 h
SMILES,TGI [µM],GI50 [µM]
O=C(/C=C/c1ccc(O)cc1)OC[C@@H](O)COC1OC(CO)C(O)C(O)C1O (stereo partly drawn),> 100,
CCN(CC)CCOc1ccc(/C=C(\C#N)c2ccc(OCCN(CC)CC)cc2)cc1,> 52.4,
Cc1ccc(NC(=O)c2c(C)nc(=O)n3c2N(/N=C/c2ccc(Cl)cc2)CC3)cc1,36.2,
CC1=Nc2ccccc2C1C(Cc1ccccc1N)c1c(C)[nH]c2ccccc12 (stereo not drawn),36,
CCOP(=O)(Cc1ccc(CP(=O)(OCC)OCC)n1C)OCC,> 100,
O=C(Nc1nc2ncn(CCI)c2c(=O)[nH]1)c1ccccc1,> 100,
CC(O)C(N=Cc1ccccc1[O-])C(=O)[O-].CC(O)C(N=Cc1ccccc1[O-])C(=O)[O-].[Co+2] (stereo not drawn),> 100,> 100

# Test system: K-562 leukemia
# Test: inhibition of tumour cell growth, NCI panel, 48 h
SMILES,TGI [µM],GI50 [µM]
O=C(/C=C/c1ccc(O)cc1)OC[C@@H](O)COC1OC(CO)C(O)C(O)C1O (stereo partly drawn),> 100,
CCN(CC)CCOc1ccc(/C=C(\C#N)c2ccc(OCCN(CC)CC)cc2)cc1,23.5,
Cc1ccc(NC(=O)c2c(C)nc(=O)n3c2N(/N=C/c2ccc(Cl)cc2)CC3)cc1,> 100,
CC1=Nc2ccccc2C1C(Cc1ccccc1N)c1c(C)[nH]c2ccccc12 (stereo not drawn),43.2,
CCOP(=O)(Cc1ccc(CP(=O)(OCC)OCC)n1C)OCC,> 100,
O=C(Nc1nc2ncn(CCI)c2c(=O)[nH]1)c1ccccc1,> 100,
CC(O)C(N=Cc1ccccc1[O-])C(=O)[O-].CC(O)C(N=Cc1ccccc1[O-])C(=O)[O-].[Co+2] (stereo not drawn),> 100,98.4

# Test system: KM12 colon
# Test: inhibition of tumour cell growth, NCI panel, 48 h
SMILES,TGI [µM],GI50 [µM]
O=C(/C=C/c1ccc(O)cc1)OC[C@@H](O)COC1OC(CO)C(O)C(O)C1O (stereo partly drawn),> 100,
CCN(CC)CCOc1ccc(/C=C(\C#N)c2ccc(OCCN(CC)CC)cc2)cc1,23.2,
CC1=Nc2ccccc2C1C(Cc1ccccc1N)c1c(C)[nH]c2ccccc12 (stereo not drawn),31.7,
CCOP(=O)(Cc1ccc(CP(=O)(OCC)OCC)n1C)OCC,> 100,
O=C(Nc1nc2ncn(CCI)c2c(=O)[nH]1)c1ccccc1,> 100,
CC(O)C(N=Cc1ccccc1[O-])C(=O)[O-].CC(O)C(N=Cc1ccccc1[O-])C(=O)[O-].[Co+2] (stereo not drawn),> 100,> 100

# Test system: KM20L2 colon
# Test: inhibition of tumour cell growth, NCI panel, 48 h
SMILES,TGI [µM],GI50 [µM]
CCN(CC)CCOc1ccc(/C=C(\C#N)c2ccc(OCCN(CC)CC)cc2)cc1,4.5,
CC1=Nc2ccccc2C1C(Cc1ccccc1N)c1c(C)[nH]c2ccccc12 (stereo not drawn),28.2,
CCOP(=O)(Cc1ccc(CP(=O)(OCC)OCC)n1C)OCC,> 100,
O=C(Nc1nc2ncn(CCI)c2c(=O)[nH]1)c1ccccc1,> 100,
CC(O)C(N=Cc1ccccc1[O-])C(=O)[O-].CC(O)C(N=Cc1ccccc1[O-])C(=O)[O-].[Co+2] (stereo not drawn),> 100,> 100

# Test system: LOX IMVI melanoma
# Test: inhibition of tumour cell growth, NCI panel, 48 h
SMILES,TGI [µM],GI50 [µM]
CCN(CC)CCOc1ccc(/C=C(\C#N)c2ccc(OCCN(CC)CC)cc2)cc1,25.5,
CC1=Nc2ccccc2C1C(Cc1ccccc1N)c1c(C)[nH]c2ccccc12 (stereo not drawn),28.2,
CCOP(=O)(Cc1ccc(CP(=O)(OCC)OCC)n1C)OCC,> 100,
O=C(Nc1nc2ncn(CCI)c2c(=O)[nH]1)c1ccccc1,> 100,
CC(O)C(N=Cc1ccccc1[O-])C(=O)[O-].CC(O)C(N=Cc1ccccc1[O-])C(=O)[O-].[Co+2] (stereo not drawn),> 100,> 100

# Test system: LXFL 529 NSCLC
# Test: inhibition of tumour cell growth, NCI panel, 48 h
row,SMILES,TGI [µM]
1,CCN(CC)CCOc1ccc(/C=C(\C#N)c2ccc(OCCN(CC)CC)cc2)cc1,41.3
2,Cc1ccc(NC(=O)c2c(C)nc(=O)n3c2N(/N=C/c2ccc(Cl)cc2)CC3)cc1,31.6
3,CC1=Nc2ccccc2C1C(Cc1ccccc1N)c1c(C)[nH]c2ccccc12 (stereo not drawn),32.2
4,CCOP(=O)(Cc1ccc(CP(=O)(OCC)OCC)n1C)OCC,> 100
5,O=C(Nc1nc2ncn(CCI)c2c(=O)[nH]1)c1ccccc1,> 100

# Test system: M14 melanoma
# Test: inhibition of tumour cell growth, NCI panel, 48 h
SMILES,TGI [µM],GI50 [µM]
O=C(/C=C/c1ccc(O)cc1)OC[C@@H](O)COC1OC(CO)C(O)C(O)C1O (stereo partly drawn),> 100,
CCN(CC)CCOc1ccc(/C=C(\C#N)c2ccc(OCCN(CC)CC)cc2)cc1,19.9,
Cc1ccc(NC(=O)c2c(C)nc(=O)n3c2N(/N=C/c2ccc(Cl)cc2)CC3)cc1,31.5,
CC1=Nc2ccccc2C1C(Cc1ccccc1N)c1c(C)[nH]c2ccccc12 (stereo not drawn),28.3,
CCOP(=O)(Cc1ccc(CP(=O)(OCC)OCC)n1C)OCC,> 100,
O=C(Nc1nc2ncn(CCI)c2c(=O)[nH]1)c1ccccc1,> 100,
CC(O)C(N=Cc1ccccc1[O-])C(=O)[O-].CC(O)C(N=Cc1ccccc1[O-])C(=O)[O-].[Co+2] (stereo not drawn),> 100,> 100

# Test system: M19-MEL melanoma
# Test: inhibition of tumour cell growth, NCI panel, 48 h
SMILES,TGI [µM],GI50 [µM]
O=C(/C=C/c1ccc(O)cc1)OC[C@@H](O)COC1OC(CO)C(O)C(O)C1O (stereo partly drawn),> 100,
CCN(CC)CCOc1ccc(/C=C(\C#N)c2ccc(OCCN(CC)CC)cc2)cc1,28.9,
Cc1ccc(NC(=O)c2c(C)nc(=O)n3c2N(/N=C/c2ccc(Cl)cc2)CC3)cc1,37,
CC1=Nc2ccccc2C1C(Cc1ccccc1N)c1c(C)[nH]c2ccccc12 (stereo not drawn),33.1,
CCOP(=O)(Cc1ccc(CP(=O)(OCC)OCC)n1C)OCC,> 100,
O=C(Nc1nc2ncn(CCI)c2c(=O)[nH]1)c1ccccc1,> 100,
CC(O)C(N=Cc1ccccc1[O-])C(=O)[O-].CC(O)C(N=Cc1ccccc1[O-])C(=O)[O-].[Co+2] (stereo not drawn),> 100,78.8

# Test system: MALME-3M melanoma
# Test: inhibition of tumour cell growth, NCI panel, 48 h
SMILES,TGI [µM],GI50 [µM]
CCN(CC)CCOc1ccc(/C=C(\C#N)c2ccc(OCCN(CC)CC)cc2)cc1,28,
Cc1ccc(NC(=O)c2c(C)nc(=O)n3c2N(/N=C/c2ccc(Cl)cc2)CC3)cc1,40.1,
CC1=Nc2ccccc2C1C(Cc1ccccc1N)c1c(C)[nH]c2ccccc12 (stereo not drawn),31,
CCOP(=O)(Cc1ccc(CP(=O)(OCC)OCC)n1C)OCC,> 100,
O=C(Nc1nc2ncn(CCI)c2c(=O)[nH]1)c1ccccc1,> 100,
CC(O)C(N=Cc1ccccc1[O-])C(=O)[O-].CC(O)C(N=Cc1ccccc1[O-])C(=O)[O-].[Co+2] (stereo not drawn),> 100,> 100

# Test system: MOLT-4 leukemia
# Test: inhibition of tumour cell growth, NCI panel, 48 h
SMILES,TGI [µM],GI50 [µM]
O=C(/C=C/c1ccc(O)cc1)OC[C@@H](O)COC1OC(CO)C(O)C(O)C1O (stereo partly drawn),> 100,
CCN(CC)CCOc1ccc(/C=C(\C#N)c2ccc(OCCN(CC)CC)cc2)cc1,38.2,
Cc1ccc(NC(=O)c2c(C)nc(=O)n3c2N(/N=C/c2ccc(Cl)cc2)CC3)cc1,82,
CC1=Nc2ccccc2C1C(Cc1ccccc1N)c1c(C)[nH]c2ccccc12 (stereo not drawn),53.4,
CCOP(=O)(Cc1ccc(CP(=O)(OCC)OCC)n1C)OCC,> 100,
O=C(Nc1nc2ncn(CCI)c2c(=O)[nH]1)c1ccccc1,> 100,
CC(O)C(N=Cc1ccccc1[O-])C(=O)[O-].CC(O)C(N=Cc1ccccc1[O-])C(=O)[O-].[Co+2] (stereo not drawn),> 100,19

# Test system: NCI-H226 lung
# Test: inhibition of tumour cell growth, NCI panel, 48 h
row,SMILES,TGI [µM]
1,O=C(/C=C/c1ccc(O)cc1)OC[C@@H](O)COC1OC(CO)C(O)C(O)C1O (stereo partly drawn),> 100
2,CCN(CC)CCOc1ccc(/C=C(\C#N)c2ccc(OCCN(CC)CC)cc2)cc1,> 78.4
3,Cc1ccc(NC(=O)c2c(C)nc(=O)n3c2N(/N=C/c2ccc(Cl)cc2)CC3)cc1,33.3
4,CC1=Nc2ccccc2C1C(Cc1ccccc1N)c1c(C)[nH]c2ccccc12 (stereo not drawn),32.9
